Converted amounts (≈) assume the structure as drawn.
Assays:
[1] = tested on: A549; experiment: Cytotoxicity against human A549 cells after 72 hrs by CCK-8 assay; format: functional, cell-based; details: A549, 72 h
[2] = Aqueous solubility of the compound at 20 degC; format: physicochemical; details: water
[3] = molecular target: Epidermal growth factor receptor (Homo sapiens, UniProt P00533); experiment: Inhibition of wild type EGFR (unknown origin) after 24 hrs by fluorescence assay
[4] = Cytotoxicity against human HCC827 cells after 72 hrs by CCK-8 assay; format: functional, cell-based; details: HCC827, 72 h

Epidermal growth factor receptor, sequence (P00533 whole entry): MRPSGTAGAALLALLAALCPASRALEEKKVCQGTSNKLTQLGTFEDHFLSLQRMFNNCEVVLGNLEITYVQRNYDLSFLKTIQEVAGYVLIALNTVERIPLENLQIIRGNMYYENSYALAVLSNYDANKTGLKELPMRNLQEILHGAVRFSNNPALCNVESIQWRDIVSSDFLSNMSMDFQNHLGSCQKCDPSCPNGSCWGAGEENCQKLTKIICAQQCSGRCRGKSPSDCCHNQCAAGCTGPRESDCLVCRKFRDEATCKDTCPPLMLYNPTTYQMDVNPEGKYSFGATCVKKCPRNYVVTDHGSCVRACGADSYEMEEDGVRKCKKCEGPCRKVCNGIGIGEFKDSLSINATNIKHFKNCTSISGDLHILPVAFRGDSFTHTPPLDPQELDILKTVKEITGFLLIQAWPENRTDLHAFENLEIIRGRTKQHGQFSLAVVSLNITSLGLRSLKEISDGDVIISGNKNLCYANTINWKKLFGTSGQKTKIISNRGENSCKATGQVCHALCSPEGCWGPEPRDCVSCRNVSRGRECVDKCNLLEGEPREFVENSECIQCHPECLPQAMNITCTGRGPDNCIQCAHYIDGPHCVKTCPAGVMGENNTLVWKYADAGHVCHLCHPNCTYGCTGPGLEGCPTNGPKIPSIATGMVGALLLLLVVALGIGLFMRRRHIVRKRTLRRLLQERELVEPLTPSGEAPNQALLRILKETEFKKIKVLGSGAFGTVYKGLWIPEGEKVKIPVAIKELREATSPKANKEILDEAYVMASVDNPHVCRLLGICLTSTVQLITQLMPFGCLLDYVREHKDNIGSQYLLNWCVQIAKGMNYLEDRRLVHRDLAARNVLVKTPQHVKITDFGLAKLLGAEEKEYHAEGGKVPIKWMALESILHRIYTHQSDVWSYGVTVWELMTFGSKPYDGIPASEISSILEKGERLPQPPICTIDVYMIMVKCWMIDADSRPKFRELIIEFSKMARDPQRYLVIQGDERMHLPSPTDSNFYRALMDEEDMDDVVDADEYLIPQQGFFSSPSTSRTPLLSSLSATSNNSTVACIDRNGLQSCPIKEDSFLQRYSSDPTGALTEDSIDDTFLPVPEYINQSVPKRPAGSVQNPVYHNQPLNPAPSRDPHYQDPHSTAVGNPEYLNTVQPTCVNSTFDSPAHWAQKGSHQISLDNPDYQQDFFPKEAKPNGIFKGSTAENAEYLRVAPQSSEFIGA

| solubility [2] | IC50 [3] | Structure (SMILES) | IC50 [1] | IC50 [4] |
| --- | --- | --- | --- | --- |
| < 1 µg/mL | 0.158 µM | COc1cc2ncnc(Nc3ccc(F)c(Cl)c3)c2cc1OCCN1CC2(C1)CS(=O)(=O)C2 | > 50 µM | 0.154 µM |
| 1.4 µg/mL (≈ 3.15 µM) | 0.016 µM | COc1cc2ncnc(Nc3ccc(F)c(Cl)c3)c2cc1OCCN1CC2(COC2)C1 | > 50 µM | 0.016 µM |
| < 1 µg/mL | 0.052 µM | COc1cc2ncnc(Nc3ccc(F)c(Cl)c3)c2cc1OCCN1CC2(CSC2)C1 | 4.8 µM | 0.051 µM |
| – | 0.026 µM | COc1cc2ncnc(Nc3ccc(F)c(Cl)c3)c2cc1OCCN1CC(O)C1 | > 50 µM | 0.116 µM |
| 25.6 µg/mL (≈ 53.9 µM) | 0.048 µM | COc1cc2ncnc(Nc3ccc(F)c(Cl)c3)c2cc1OCCCN1CC2(CSC2)C1 | 9.5 µM | 0.05 µM |
| 2.1 µg/mL (≈ 4.7 µM) | – | COc1cc2ncnc(Nc3ccc(F)c(Cl)c3)c2cc1OCCCN1CCOCC1 [GEFITINIB] | – | – |

Continued, compound first:

| Structure (SMILES) | solubility [2] | IC50 [3] | IC50 [1] | IC50 [4] |
| --- | --- | --- | --- | --- |
| COc1cc2ncnc(Nc3ccc(F)c(Cl)c3)c2cc1OCCCN1CC2(C1)CS(=O)(=O)C2 | 72.3 µg/mL (≈ 143 µM) | 0.024 µM | 25.2 µM | 0.389 µM |
| COc1cc2ncnc(Nc3ccc(F)c(Cl)c3)c2cc1OCCCN1CC(O)C1 | – | 0.025 µM | > 50 µM | 0.352 µM |
| COc1cc2ncnc(Nc3ccc(F)c(Cl)c3)c2cc1OCCCN1CC(OC)C1 | – | 0.034 µM | 25.1 µM | 0.042 µM |
| COc1cc2ncnc(Nc3ccc(F)c(Cl)c3)c2cc1OCCCN1CCC2(COC2)C1 | 33.8 µg/mL (≈ 71.5 µM) | – | > 50 µM | 0.028 µM |
| COc1cc2ncnc(Nc3ccc(F)c(Cl)c3)c2cc1OCCN1CC2(CCO2)C1 | < 1 µg/mL | 0.19 µM | > 50 µM | 0.023 µM |
| COc1cc2ncnc(Nc3ccc(F)c(Cl)c3)c2cc1OCCN1CC(OC)C1 | – | 0.094 µM | > 50 µM | 0.064 µM |
| COc1cc2ncnc(Nc3ccc(F)c(Cl)c3)c2cc1OCCCN1CC2(COC2)C1 | 28.3 µg/mL (≈ 61.7 µM) | 0.056 µM | 31.8 µM | 0.069 µM |
| COc1cc2ncnc(Nc3ccc(F)c(Cl)c3)c2cc1OCCCN1CC2(CCO2)C1 | 1.2 µg/mL (≈ 2.61 µM) | 0.036 µM | 25.7 µM | 0.039 µM |
